Measured values as given in patent publication US10669289B2, “Boronic acid derivatives” (MERCK PATENT GMBH, priority 2014, dated 2020).

Columns and labels:
[1] = target: human immuno proteasome (LMP7) (Homo sapiens (Human), UniProt P28062); test: Determination of LMP7 activity (fluorescence intensity assay, Suc-LLVY-AMC); type: biochemical
Experimental: Determination of LMP7 Activity:
Measurement of LMP7 inhibition is performed in 384 well format based on fluorescence intensity assay.
(§1) Purified human immuno proteasome (0.25 nM) and serial diluted compounds in DMSO (range of concentrations from 30 μM to 15 pM) or controls are incubated for 20 minutes or 120 minutes (long incubation) at 25° C. in assay buffer containing 50 mM Tris pH 7.4, 0.03% SDS, 1 mM EDTA and 1% DMSO. The reaction is initiated by the addition of the fluorogenic peptide substrate, Suc-LLVY-AMC (Bachem 1-1395), at a concentration of 40 μM. After 60 minutes of incubation at 37° C., fluorescence intensity is measured at λex=350 nm and λem=450 nm with a fluorescence reader (Perkin Elmer Envision reader or equivalent).
(§2) Unless indicated otherwise the results are obtained after incubation for 20 minutes.

[2] = target: human constitutive proteasome (Beta5) (Homo sapiens (Human), UniProt P28074); test: Determination of Beta5 activity (fluorescence intensity assay, Suc-LLVY-AMC); type: biochemical
Experimental: Determination of Beta5 Activity:
Measurement of Beta5 inhibition is performed in 384 well format based on fluorescence intensity assay.
as §1, with “constitutive” for “immuno”, “(1.25” for “(0.25”
as §2

[3] = LMP7 versus Beta5, long incubation (120 min)

SMILES | Selectivity LMP7 vs Beta5 [1, 3] | IC50 ([1]; long incubation (120 min)) [nM] | IC50 ([2]; long incubation (120 min)) [nM] | Selectivity LMP7 vs Beta5 ([1]; LMP7 versus Beta5, incubation for 20 minutes) | IC50 ([1]; incubation for 20 minutes) [nM] | IC50 ([2]; incubation for 20 minutes) [nM]
C=CC(=O)N1CCC[C@@H]1C(=O)N[C@@H](Cc1ccc(C)cc1C)B(O)O [Compound No. 53, [(1R)-2-(2,4-dimethylphenyl)-1-[[(2R)-1-prop-2-enoylpyrrolidine-2-carbonyl]amino]ethyl]boronic Acid] | ++ (50 ≤ Selectivity < 70) | 500 to 5000 | > 5000 |  |  | 
C=CC(=O)N1CCC[C@@H]1C(=O)N[C@@H](Cc1ccc(Cl)cc1Cl)B(O)O [Compound No. 54, [(1R)-2-(2,4-dichlorophenyl)-1-[[(2R)-1-prop-2-enoylpyrrolidine-2-carbonyl]amino]ethyl]boronic Acid] | ++ (50 ≤ Selectivity < 70) | 500 to 5000 | > 5000 |  |  | 
C=CC(=O)N(CC(=O)N[C@@H](Cc1ccc(C)cc1C)B(O)O)CC(F)(F)F [Compound No. 57, [(1R)-2-(2,4-dimethylphenyl)-1-[[2-[prop-2-enoyl(2,2,2-trifluoroethyl)amino]acetyl]amino]ethyl]boronic Acid] | +++++ (Selectivity ≥ 150) | 50 to 500 | > 5000 |  |  | 
C=CC(=O)N1CCC[C@H]1C(=O)N[C@@H](Cc1ccc(C)cc1C)B(O)O [Compound No. 58, [(1R)-2-(2,4-dimethylphenyl)-1-[[(2S)-1-prop-2-enoylpyrrolidine-2-carbonyl]amino]ethyl]boronic Acid] |  |  |  | ++ (50 ≤ Selectivity < 70) | 500 to 5000 | > 5000
CCN(CC(=O)N[C@@H](Cc1ccc(C)cc1C)B(O)O)C(=O)/C=C/C(=O)N(C)C [Compound No. 62, [(1R)-1-[[2-[[(E)-4-(dimethylamino)-4-oxo-but-2-enoyl]-ethyl-amino]acetyl]amino]-2-(2,4-dimethylphenyl)ethyl]boronic Acid] | +++++ (Selectivity ≥ 150) | 50 to 500 | > 5000 |  |  | 

Results, then the molecule that gave them:

Selectivity LMP7 vs Beta5 [1, 3] | IC50 ([1]; long incubation (120 min)) [nM] | IC50 ([2]; long incubation (120 min)) [nM] | Selectivity LMP7 vs Beta5 ([1]; LMP7 versus Beta5, incubation for 20 minutes) | IC50 ([1]; incubation for 20 minutes) [nM] | IC50 ([2]; incubation for 20 minutes) [nM] | SMILES
+++++ (Selectivity ≥ 150) | < 50 | 500 to 5000 |  |  |  | C=CC(=O)N(CC(=O)N[C@@H](Cc1ccc(Cl)cc1)B(O)O)c1ccccc1F [Compound No. 55, [(1R)-2-(4-chlorophenyl)-1-[[2-(2-fluoro-N-prop-2-enoyl-anilino)acetyl]amino]ethyl]boronic Acid]
+++++ (Selectivity ≥ 150) | < 50 | > 5000 |  |  |  | C=CC(=O)N(CC#N)CC(=O)N[C@@H](Cc1ccc(C)cc1C)B(O)O [Compound No. 56, [(1R)-1-[[2-[cyanomethyl(prop-2-enoyl)amino]acetyl]-amino]-2-(2,4-dimethylphenyl)ethyl]boronic Acid]
+++++ (Selectivity ≥ 150) | < 50 | > 5000 |  |  |  | C=CC(=O)N(CC(=O)N[C@@H](Cc1ccc(C)cc1C)B(O)O)C1CC1 [Compound No. 59, [(1R)-1-[[2-[cyclopropyl(prop-2-enoyl)amino]acetyl]amino]-2-(2,4-dimethylphenyl)ethyl]boronic Acid]
+++++ (Selectivity ≥ 150) | < 50 | > 5000 |  |  |  | C=CC(=O)N(CC(=O)N[C@@H](Cc1ccc(Cl)cc1Cl)B(O)O)CC(F)(F)F [Compound No. 60, [(1R)-2-(2,4-dichlorophenyl)-1-[[2-[prop-2-enoyl(2,2,2-trifluoroethyl)amino]acetyl]amino]ethyl]boronic Acid]
+++++ (Selectivity ≥ 150) | < 50 | > 5000 |  |  |  | C=CC(=O)N(CC(=O)N[C@@H](Cc1ccc(C)c(C)c1)B(O)O)CC(F)(F)F [Compound No. 61, [(1R)-2-(3,4-dimethylphenyl)-1-[[2-[prop-2-enoyl(2,2,2-trifluoroethyl)amino]acetyl]amino]ethyl]boronic Acid]
+++++ (Selectivity ≥ 150) | < 50 | > 5000 |  |  |  | C=CC(=O)N(CC#N)CC(=O)N[C@@H](Cc1ccc(C)c(C)c1)B(O)O [Compound No. 63, [(1R)-1-[[2-[cyanomethyl(prop-2-enoyl)amino]acetyl]amino]-2-(3,4-dimethylphenyl)ethyl]boronic Acid]
